The target of the first assay is T1, fatty acid cyclooxygenase (Homo sapiens, UniProt P23219).
T1 construct: The solubilized fatty acid cyclooxygenase was applied to a 440 ml electrofocusing column; from tissue; host or cells: human platelets: microsomes solubilized with Triton X-100, purified by electrofocusing and G-200 Sephadex
T1 sequence (P23219 24-599): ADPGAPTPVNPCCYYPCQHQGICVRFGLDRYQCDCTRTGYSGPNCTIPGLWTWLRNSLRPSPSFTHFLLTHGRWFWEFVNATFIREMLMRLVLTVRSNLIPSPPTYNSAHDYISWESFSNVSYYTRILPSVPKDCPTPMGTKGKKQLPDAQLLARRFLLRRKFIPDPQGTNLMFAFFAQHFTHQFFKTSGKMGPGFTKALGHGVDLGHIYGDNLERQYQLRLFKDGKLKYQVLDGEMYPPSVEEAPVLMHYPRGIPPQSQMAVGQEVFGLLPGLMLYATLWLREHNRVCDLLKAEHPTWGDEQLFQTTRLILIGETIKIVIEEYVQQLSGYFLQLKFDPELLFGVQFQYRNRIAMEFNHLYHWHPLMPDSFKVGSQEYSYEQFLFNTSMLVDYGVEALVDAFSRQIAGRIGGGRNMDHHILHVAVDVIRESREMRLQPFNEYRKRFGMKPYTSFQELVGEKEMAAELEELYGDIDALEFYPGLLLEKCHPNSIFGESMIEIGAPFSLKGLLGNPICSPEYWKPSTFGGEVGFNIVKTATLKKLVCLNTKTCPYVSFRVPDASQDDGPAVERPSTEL
Put plainly: Fatty Acid Cyclooxygenase (FCO) Assay, inhibition of PGE2 formation by purified human platelet enzyme. Particulars: human platelet microsomal enzyme, pH 8.0, 37° C. Format: biochemical. As to the method: Fatty Acid Cyclooxygenase (FCO) Assay
Microsomes were prepared from 185 bags of human platelets (each bag containing the platelets from one pint of blood prepared using differential centrifugation procedures). The platelets from approximately 60 bags were prepared at one time. Platelet-rich plasma (500 g) was centrifuged at 10,000×g for 20 minutes, and the platelet pellet was suspended in 100 ml of 0.1M potassium phosphate buffer, pH 8.0, with a Teflon glass homogenizer and sonicated for 5.0 minutes with a Bronson Sonifier (Model 350) in a rosette flask cooled in ice water. Disrupted platelets were centrifuged 15 minutes at 10,000× g. The supernatant was centrifuged at 100,000× g for 90 minutes and the microsomal pellets were homogenized in 25 ml of 20% sucrose containing 1.0% Triton X-100 detergent. After 30 minutes at 4° C., the solubilized microsomes were centrifuged at 100,000× g for 60 minutes. The yellow supernatant was removed and stored at -70 ° C.
The solubilized fatty acid cyclooxygenase was applied to a 440 ml electrofocusing column (LKB-8012) containing 1% phisolytes (Brinkman Instruments, Westburgh, NY), pH 2-11, with the cathode at the top of the column. The enzyme was layered onto the column at the appropriate time so that its sucrose concentration was equal to that of the column gradient. This was accomplished by checking the gradient concentration periodically with a sucrose hand refractometer. Electrofocusing was carried out for 16 hours with an initial voltage of 400 V and a final voltage of 900-1,000 volts. Fractions were collected (20 ml) and assayed for PGE2 formation. Active peak fractions were pooled and concentrated by ultrafiltration (XM 100A) to a volume of 3-5 ml.
Active fractions from electrofocusing were applied to a G-200 Sephadex column (2 cm×46 cm) and eluted with 10 mM potassium phosphate buffer, pH 7.0, in 5 ml fractions. After assay, active fractions were poored and concentrated to 1.0 ml by ultrafiltration (XM 100A), and kept frozen at -70° C.
Enzyme activity was determined by assaying for PGE2 formation by preincubating the enzyme with 10 mmol/l imidazole phosphate buffer, pH 8.0, 2 mmol/l epinephrine, 2 mmol/l methemoglobin, and the test compound (30 μg/ml) in a total volume of 0.2 ml for one minute at 37° C. After preincubation, 5 mmol/l ^14 C-arachidonic acid were added and the mixture was incubated an additional 0.5 minutes at 37° C. The enzyme reaction was stopped by the addition of 2 μl of indomethacin (2 mg/ml) in alcohol.
The reaction mixture was spotted (50 μl) on a silica gel (LQ6D) plate and subjected to TLC. The solvent system consisted of chloroform-methanol-glacial acetic acid (90:5:5, v/v/v) and the relative mobilities were PGF2α =0.235, and PGE2 =0.47. The silica gel on the plate was scraped in 1 cm sections, suspended in 5 ml of the scintillation fluid [5.88 g of 2,5-diphenyloxazole and 118 mg of 1,4 -bis(5-phenyloxazol-2-yl)benzene] dissolved in 650 ml of toluene and 350 ml of Triton X-100) and the radioactivity was determined in an Isocap/300 liquid scintillation counter (Searle Analytic, Inc., Southfield, Mich.). Another 50 μl of the mixture was added to 10 ml of the Triton X-100 based scintillation fluid, and the radioactivity was determined so that the amount of radioactivity recovery from the TLC plate could be ascertained. PGE2 formation for each test compound was determined as a percent of control experiments wherein no test compound was added. Data is expressed in Table I either as the percent inhibition of formation of PGE2 at a test compound concentration of 30 μ g/ml, or as an IC50 for inhibition of PGE2 formation.
Turning to `CCCc1c(O)ccc(C(=O)c2ccccc2O)c1O` [Example 4, (2,4-Dihydroxy-3-propylphenyl)(2hydroxyphenyl)methanone], the IC50 – broadly, the concentration that gives 50% inhibition – was 1.1 µM.

Turning to `CCCc1c(OCCCCC#N)ccc(C(=O)c2ccccc2O)c1O` [Example 11, 5-[3-Hydroxy-4-(2-hydroxybenzoyl)-2-propylphenoxy]pentanenitrile], the IC50 is 84.9 µM.

`CCCc1c(OCCCCCCc2nnn[nH]2)ccc(C(=O)c2ccccc2O)c1O` [Example 25, (2-Hydroxyphenyl)[2-hydroxy-3-propyl-4-([6-(1H-tetrazol-5-yl)hexyl]oxy)phenyl]methanone] gave an IC50 of 12.7 µM.

In turn, `CCCc1c(OCCCCCCCCc2nnn[nH]2)ccc(C(=O)c2ccccc2O)c1O` [Example 28, (2-Hydroxyphenyl)[2-hydroxy-3-propyl-4-([8-(1H-tetrazol-5-yl)octyl]oxy)phenyl]methanone] showed an IC50 of 12.2 µM.

`CCCc1c(OCCCCC(=O)O)ccc(C(=O)c2ccccc2O)c1O` [Example 30, 5-[3-Hydroxy-4-(2-hydroxybenzoyl)-2-propylphenoxy]pentanoic acid] gave an IC50 of 121 µM.

Staying with this assay, now noted: percent inhibition at 30 μg/ml.
With `COc1ccccc1C(=O)c1ccc(OC)c(C)c1O` [Example 9, (2-hydroxy-4-methoxy-3-methylphenyl)(2-methoxyphenyl)methanone], the inhibition – broadly, the percentage by which the read-out fell short of the control – at 30 µg/mL was determined as 35%.

For the compound `CCCc1c(OCCCCc2nnn[nH]2)ccc(C(=O)c2ccccc2OC)c1O` [Example 23, (2-Hydroxy-3-propyl-4-[4-(1H-tetrazol-5-yl)butoxy]phenyl)(2-methoxyphenyl)methanone], at 30 µg/mL the inhibition was 17%.

Compound `CCCc1c(OCCCCc2nnn[nH]2)ccc(C(=O)c2ccccc2O)c1O` [Example 26, (2-Hydroxyphenyl)(2-hydroxy-3-propyl-4[4-(1H-tetrazol-5-yl)butoxy]phenyl)methanone] yielded an inhibition at 30 µg/mL of 44%.

(Values after patent US4801616A, “Diphenylmethanone compounds and anti-inflammatory use thereof” (Eli Lilly and Company, priority 1986, dated 1989).)
